These results are taken from patent publication US9179678B2, “Substituted [1,2,4]triazoles and substituted tetrazoles as herbicides” (SYNGENTA LIMITED, priority 2012, dated 2015).

Common to all, as to assay type: in vivo
For assay [1], the system named is Echinochloa crus-galli (ECHCG). Kind of assay: Post-emergence glasshouse herbicide test. Conditions: POST Application, 1000 g/h, after 13 days. As to the method: (§1) Seeds of a variety of test species are sown in standard soil in pots (Alopecurus myosuroides (ALOMY), Setaria faberi (SETFA), Echinochloa crus-galli (ECHCG), Solanum nigrum (SOLNI), Amaranthus retoflexus (AMARE), Ipomoea hederacea (IPOHE)). After cultivation for one day (pre-emergence) or after 8 days cultivation (post-emergence) under controlled conditions in a glasshouse (at 24/16° C., day/night; 14 hours light; 65% humidity), the plants are sprayed with an aqueous spray solution derived from the formulation of the technical active ingredient in acetone/water (50:50) solution containing 0.5% Tween 20 (polyoxyethelyene sorbitan monolaurate, CAS RN 9005-64-5). Compounds ae applied at 1000 g/h. The test plants are then grown in a glasshouse under controlled conditions in a glasshouse (at 24/16° C., day/night; 14 hours light; 65% humidity) and watered twice daily. After 13 days for pre and post-emergence, the test is evaluated for the percentage damage caused to the plant. The biological activities are shown in the following table on a five point scale (5=80-100%; 4=60-79%; 3=40-59%; 2=20-39%; 1=0-19%).

Assay [2] has as its system Solanum nigrum (SOLNI). Description: Post-emergence glasshouse herbicide test. Conditions: POST Application, 1000 g/h, after 13 days. How it is done: as §1
Assay [3] relates to Ipomoea hederacea (IPOHE). Description: Post-emergence glasshouse herbicide test. Conditions: POST Application, 1000 g/h, after 13 days. As to the method:
as §1

The test system of assay [4] is Alopecurus myosuroides (ALOMY). Description: Post-emergence glasshouse herbicide test. Conditions: POST Application, 1000 g/h, after 13 days. How it is done:
as §1

In assay [5] the test system is Amaranthus retoflexus (AMARE). Kind of assay: Post-emergence glasshouse herbicide test. Conditions: POST Application, 1000 g/h, after 13 days. As to the method:
as §1

Assay [6] has as its system Setaria faberi (SETFA). Kind of assay: Post-emergence glasshouse herbicide test. Conditions: POST Application, 1000 g/h, after 13 days. As to the method:
as §1, with “Compounds ae applied at 1000 g/h.” left out

Assay [7] deals with Echinochloa crus-galli (ECHCG). Kind of assay: Pre-emergence glasshouse herbicide test. Conditions: PRE Application, 1000 g/h, after 13 days. As to the method: as §1
For assay [8], the system named is Setaria faberi (SETFA). Kind of assay: Pre-emergence glasshouse herbicide test. Conditions: PRE Application, 1000 g/h, after 13 days. How it is done: as §1
Assay [9] relates to Solanum nigrum (SOLNI). Kind of assay: Pre-emergence glasshouse herbicide test. Conditions: PRE Application, 1000 g/h, after 13 days. As to the method: as §1
The subject of assay [10] is Ipomoea hederacea (IPOHE). Description: Pre-emergence glasshouse herbicide test. Conditions: PRE Application, 1000 g/h, after 13 days. As to the method: as §1
Assay [11] has as its system Alopecurus myosuroides (ALOMY). Description: Pre-emergence glasshouse herbicide test. Conditions: PRE Application, 1000 g/h, after 13 days. As to the method:
as §1

The test system of assay [12] is Amaranthus retoflexus (AMARE). Description: Pre-emergence glasshouse herbicide test. Conditions: PRE Application, 1000 g/h, after 13 days. As to the method: as §1

Take `Cn1nnnc1NC(=O)c1nc2ccc(Cl)cc2n(-c2ccccc2)c1=O` [Compound 5.008]: the “percentage damage caused to the plant, ECHCG” value in assay [1] and in [7] was 2 (2=20-39%) each time. The “percentage damage caused to the plant, SOLNI” value in the assay with Solanum nigrum (SOLNI) [2] and in the assay with Solanum nigrum (SOLNI) [9] was 5 (5=80-100%) each time. Further, the “percentage damage caused to the plant, IPOHE” value in assay [3] and in assay [10] was 5 (5=80-100%) in each case. Moreover, the “percentage damage caused to the plant, ALOMY” value in assay [4] and in assay [11] was 2 (2=20-39%) throughout. In addition, the “percentage damage caused to the plant, AMARE” value in assay [5] and in assay [12] was 5 (5=80-100%) in each case. Further, the “percentage damage caused to the plant, SETFA” value in the assay with Setaria faberi (SETFA) [6] and with Setaria faberi (SETFA) [8] was 5 (5=80-100%) each time.
In the case of `COc1ccc(-n2c(=O)c(C(=O)Nc3nnnn3C)nc3ccccc32)cc1` [Compound 5.009], the figures for the “percentage damage caused to the plant, ECHCG” value in [1] and in assay [7] were 4 (4=60-79%) and 5 (5=80-100%), respectively. The “percentage damage caused to the plant, SOLNI” value with Solanum nigrum (SOLNI) [2] and in the assay with Solanum nigrum (SOLNI) [9] was 5 (5=80-100%) in each case. The “percentage damage caused to the plant, IPOHE” value in assay [3] was 3 (3=40-59%); in assay [10] it was 5 (5=80-100%). Moreover, the “percentage damage caused to the plant, ALOMY” value in assay [4] is 1 (1=0-19%); in assay [11], 2 (2=20-39%). Moreover, the “percentage damage caused to the plant, AMARE” value in assay [5] and in assay [12] was 5 (5=80-100%) in each case. Also, the entries for the “percentage damage caused to the plant, SETFA” value with Setaria faberi (SETFA) [6] and in the assay with Setaria faberi (SETFA) [8] were 2 (2=20-39%) and 1 (1=0-19%), respectively.
For the compound `Cc1cccc(-n2c(=O)c(C(=O)Nc3nnnn3C)nc3ccccc32)c1` [Compound 5.011], the “percentage damage caused to the plant, ECHCG” value in assay [1] and in assay [7] was 4 (4=60-79%) each time. Moreover, the “percentage damage caused to the plant, SOLNI” value with Solanum nigrum (SOLNI) [2] and in the assay on Solanum nigrum (SOLNI) [9] was 5 (5=80-100%) in each case. The “percentage damage caused to the plant, IPOHE” value in assay [3] and in [10] was 5 (5=80-100%) throughout. In addition, the “percentage damage caused to the plant, ALOMY” value in assay [4] and in assay [11] was 2 (2=20-39%) in each case. Moreover, the “percentage damage caused to the plant, AMARE” value in assay [5] and in assay [12] was 5 (5=80-100%) each time. Also, the “percentage damage caused to the plant, SETFA” value in the assay with Setaria faberi (SETFA) [6] was 5 (5=80-100%); in the assay on Setaria faberi (SETFA) [8] it was 4 (4=60-79%).
`Cc1ccc(-n2c(=O)c(C(=O)Nc3nnnn3C)nc3ccccc32)cc1` [Compound 5.012]: the “percentage damage caused to the plant, ECHCG” value in [1] and in assay [7] was 5 (5=80-100%) throughout. Also, the “percentage damage caused to the plant, SOLNI” value with Solanum nigrum (SOLNI) [2] and with Solanum nigrum (SOLNI) [9] was 5 (5=80-100%) each time. Moreover, the “percentage damage caused to the plant, IPOHE” value in [3] and in [10] was 5 (5=80-100%) in each case. The “percentage damage caused to the plant, ALOMY” value in [4] and in [11] was 2 (2=20-39%) each time. The “percentage damage caused to the plant, AMARE” value in [5] and in [12] was 5 (5=80-100%) each time. Besides, the “percentage damage caused to the plant, SETFA” value is recorded as 4 (4=60-79%) with Setaria faberi (SETFA) [6] and 3 (3=40-59%) with Setaria faberi (SETFA) [8].
As to `CCOc1cccc(-n2c(=O)c(C(=O)Nc3nnnn3C)nc3ccccc32)c1` [Compound 5.014], the “percentage damage caused to the plant, ECHCG” value in assay [1] is on record as 4 (4=60-79%); in [7], 2 (2=20-39%). Besides, the “percentage damage caused to the plant, SOLNI” value with Solanum nigrum (SOLNI) [2] and with Solanum nigrum (SOLNI) [9] was 5 (5=80-100%) each time. Moreover, the figures for the “percentage damage caused to the plant, IPOHE” value in assay [3] and in assay [10] were 5 (5=80-100%) and 4 (4=60-79%), respectively. Besides, the “percentage damage caused to the plant, ALOMY” value is given as 3 (3=40-59%) in assay [4] and 2 (2=20-39%) in assay [11]. Besides, the “percentage damage caused to the plant, AMARE” value in assay [5] and in assay [12] was 5 (5=80-100%) each time. Moreover, the “percentage damage caused to the plant, SETFA” value in the assay with Setaria faberi (SETFA) [6] and in the assay on Setaria faberi (SETFA) [8] was 5 (5=80-100%) in each case.
For `Cn1nnnc1NC(=O)c1nc2ccccc2n(-c2ccc(Cl)cc2)c1=O` [Compound 5.015], the “percentage damage caused to the plant, ECHCG” value in [1] and in assay [7] was 5 (5=80-100%) throughout. Besides, the “percentage damage caused to the plant, SOLNI” value in the assay on Solanum nigrum (SOLNI) [2] and in the assay with Solanum nigrum (SOLNI) [9] was 5 (5=80-100%) in each case. Moreover, the “percentage damage caused to the plant, IPOHE” value in assay [3] and in [10] was 5 (5=80-100%) throughout. In addition, the “percentage damage caused to the plant, ALOMY” value in assay [4] is 4 (4=60-79%); in [11], 2 (2=20-39%). The “percentage damage caused to the plant, AMARE” value in assay [5] and in assay [12] was 5 (5=80-100%) in each case. In addition, the “percentage damage caused to the plant, SETFA” value in the assay on Setaria faberi (SETFA) [6] and in the assay with Setaria faberi (SETFA) [8] was 5 (5=80-100%) each time.
With `Cn1nnnc1NC(=O)c1nc2ccccc2n(-c2cccc(Cl)c2)c1=O` [Compound 5.016], the “percentage damage caused to the plant, ECHCG” value in assay [1] and in assay [7] was 5 (5=80-100%) throughout. In addition, the “percentage damage caused to the plant, SOLNI” value in the assay with Solanum nigrum (SOLNI) [2] and in the assay with Solanum nigrum (SOLNI) [9] was 5 (5=80-100%) in each case. Moreover, the “percentage damage caused to the plant, IPOHE” value in assay [3] and in assay [10] was 5 (5=80-100%) each time. The entries for the “percentage damage caused to the plant, ALOMY” value in assay [4] and in assay [11] were 5 (5=80-100%) and 4 (4=60-79%), respectively. The “percentage damage caused to the plant, AMARE” value in [5] and in assay [12] was 5 (5=80-100%) throughout. The “percentage damage caused to the plant, SETFA” value in the assay with Setaria faberi (SETFA) [6] and with Setaria faberi (SETFA) [8] was 5 (5=80-100%) each time.
With `Cn1nnnc1NC(=O)c1nc2ccccc2n(-c2cc(Cl)cc(Cl)c2)c1=O` [Compound 5.017], the “percentage damage caused to the plant, ECHCG” value is 2 (2=20-39%) in assay [1] and 1 (1=0-19%) in assay [7]. The “percentage damage caused to the plant, SOLNI” value with Solanum nigrum (SOLNI) [2] and with Solanum nigrum (SOLNI) [9] was 5 (5=80-100%) throughout. Besides, the “percentage damage caused to the plant, IPOHE” value in assay [3] and in [10] was 4 (4=60-79%) in each case. In addition, the figures for the “percentage damage caused to the plant, ALOMY” value in assay [4] and in assay [11] were 5 (5=80-100%) and 4 (4=60-79%), respectively. Moreover, the “percentage damage caused to the plant, AMARE” value in assay [5] and in assay [12] was 5 (5=80-100%) throughout. Besides, the “percentage damage caused to the plant, SETFA” value in the assay with Setaria faberi (SETFA) [6] and in the assay on Setaria faberi (SETFA) [8] was 5 (5=80-100%) each time.
Consider `Cn1nnnc1NC(=O)c1nc2ccccc2n(-c2cccc(F)c2)c1=O` [Compound 5.018], for which the “percentage damage caused to the plant, ECHCG” value in assay [1] and in [7] was 5 (5=80-100%) each time. In addition, the “percentage damage caused to the plant, SOLNI” value in the assay on Solanum nigrum (SOLNI) [2] and in the assay with Solanum nigrum (SOLNI) [9] was 5 (5=80-100%) each time. For the same compound, the “percentage damage caused to the plant, IPOHE” value in assay [3] and in assay [10] was 5 (5=80-100%) each time. Also, the “percentage damage caused to the plant, ALOMY” value in assay [4] and in [11] was 5 (5=80-100%) in each case. Also, the “percentage damage caused to the plant, AMARE” value in [5] and in assay [12] was 5 (5=80-100%) in each case. Further, the “percentage damage caused to the plant, SETFA” value in the assay with Setaria faberi (SETFA) [6] and in the assay with Setaria faberi (SETFA) [8] was 5 (5=80-100%) in each case.
